These results are taken from patent US20110306597A1, “Nicotinamide Derivatives” (priority 2008, published 2011).

The experiment has as its target human recombinant H-PGDS (Homo sapiens, UniProt O60760). As to the kind of experiment: Fluorescence Intensity h-PGDS TBA Enzyme Assay. It counts as biochemical. The note with it: 1:175,000 human recombinant H-PGDS, highest inhibitor concentration typically 1 μM. The essentials: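 Recombinant human H-PGDS preincubated 10 min at room temperature with inhibitor in 100 mM Tris pH 8.0, 100 μM MgCl2, 2.5 mM glutathione, 0.5% DMSO; 5.0 μM PGH2 added, stopped after 42 s with FeCl2/citric acid. Remaining PGH2 measured as MDA–TBA fluorescence (ex 530/em 565 nm); IC50 by 4-parameter fit, 11 concentrations.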

Sequence of human recombinant H-PGDS (O60760 whole entry): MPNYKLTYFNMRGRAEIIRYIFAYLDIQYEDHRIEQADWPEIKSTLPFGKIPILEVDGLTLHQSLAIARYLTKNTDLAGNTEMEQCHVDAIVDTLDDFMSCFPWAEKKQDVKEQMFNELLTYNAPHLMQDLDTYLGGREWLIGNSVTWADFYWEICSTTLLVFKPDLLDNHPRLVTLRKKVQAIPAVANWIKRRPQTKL

With `Cc1cc(C)c(C#N)c(N2C[C@H](NC(=O)c3ccc(-c4cccc(F)c4)nc3)[C@@H](O)C2)n1` [Example 563, N-[(3S,4S)-1-(3-Cyano-4,6-dimethylpyridin-2-yl)-4-hydroxypyrrolidin-3-yl]-6-(3-fluorophenyl)nicotinamide], the IC50 (in general, the concentration that inhibits the measured activity by half) is 5.15 nM.
As for `CC(C)NC(=O)c1ccc(-c2ccc(F)cc2)nc1` [Example 503, 6-(4-Fluorophenyl)-N-isopropylnicotinamide], the IC50 was not below 1000 nM.
As for `NC(=O)[C@H](Cc1ccccc1)NC(=O)c1ccc(-c2cccc(F)c2)nc1` [Example 29, Nalpha-{[6-(3-fluorophenyl)pyridin-3-yl]carbonyl} phenylalaninamide], the figure is 17.6 nM; as for `O=C(Nc1cccnc1)c1ccc(-c2ccc(F)cc2)nc1` [Example 328, 6-(4-Fluorophenyl)-N-pyridin-3-ylnicotinamide], 92 nM; as for `O=C(NCCN1CCCC1=O)c1ccc(-c2ccc(F)cc2)nc1` [Example 477, 6-(4-Fluorophenyl)-N-[2-(2-oxopyrrolidin-1-yl)ethyl]nicotinamide], 895 nM.
As to `CCOC(=O)CC(NC(=O)c1ccc(-c2cccc(OC)c2)nc1)c1ccc(Cl)cc1` (stereo not drawn) [Example 334, Ethyl 3-(4-chlorophenyl)-3-({[6-(3-methoxyphenyl)pyridin-3-yl]cabonyl}amino)propanoate], the IC50 was not below 1000 nM.
As for `CC(C)N1CCC(CNC(=O)c2ccc(-c3cccc(F)c3)nc2)C1` (stereo not drawn) [Example 12, 6-(3-Fluorophenyl)-N-[(1-isopropylpyrrolidin-3-yl)methyl]nicotinamide], the figure is 117 nM.
As for `COCCN1CC(CNC(=O)c2ccc(-c3cccc(F)c3)nc2)CC1=O` (stereo not drawn) [Example 20, 6-(3-Fluorophenyl)-N-{[1-(2-methoxyethyl)-5-oxopyrrolidin-3-yl]methyl}nicotinamide], the figure is 35.1 nM; as for “N-(3-Fluorobenzyl)-6-(3- methylphenyl)nicotinamide [Example 238]”, 38.9 nM; as for `CCOC(=O)C1(NC(=O)c2ccc(-c3cccc(F)c3)nc2)CCOCC1` [Example 159, Ethyl 4-({[6-(3-fluorophenyl)pyridin-3-yl]carbonyl}amino)tetrahydro-2H-pyran-4-carboxylate], 391 nM.
As for `O=C(NCc1ccccc1F)c1ccc(-c2ccccc2)nc1` [Example 380, N-(2-Fluorobenzyl)-6-phenylnicotinamide], the figure is 2.1 nM.
For the compound `COCCN1C(=O)CCC1CCNC(=O)c1ccc(-c2cccc(F)c2)nc1` (stereo not drawn) [Example 46, 6-(3-Fluorophenyl)-N-{2-[1-(2-methoxyethyl)-5-oxopyrrolidin-2-yl]ethyl}nicotinamide], the IC50 turned out to be 17.3 nM.
As for `CCC(C)NC(=O)c1ccc(-c2cccc(F)c2)nc1` (stereo not drawn) [Example 426, N-sec-Butyl-6-(3-fluorophenyl)nicotinamide], the figure is 111 nM; as for `COc1cc(CNC(=O)c2cnc(-c3cccc(F)c3)c(Cl)c2)cc2c1OCCO2` [Example 548, 5-Chloro-6-(3-fluorophenyl)-N-[(8-methoxy-2,3-dihydro-1,4-benzodioxin-6-yl)methyl]nicotinamide], 54.7 nM.
For `Cc1ccc2c(c1C)OCCC2NC(=O)c1ccc(-c2cc(F)cc(F)c2)nc1` (stereo not drawn) [Example 538, 6-(3,5-Difluorophenyl)-N-(7,8-dimethyl-3,4-dihydro-2H-chromen-4-yl)nicotinamide], the IC50 turned out to be 30.1 nM.
As for `O=C(NCCN1CCCCC1CO)c1ccc(-c2cccc(F)c2)nc1` (stereo not drawn) [Example 215, 6-(3-Fluorophenyl)-N-{2-[2-(hydroxymethyl)piperidin-1-yl]ethyl}nicotinamide], the figure is 101 nM; as for `COC(=O)c1ccc(CNC(=O)c2ccc(-c3ccccc3)nc2)cc1` [Example 523, Methyl 4-({[(6-phenylpyridin-3-yl)carbonyl]amino}methyl) benzoate], 14.1 nM; as for `CCOC(=O)c1nnc(CNC(=O)c2ccc(-c3cccc(F)c3)nc2)o1` [Example 217, Ethyl 5-[({[6-(3-fluorophenyl)pyridin-3-yl]carbonyl}amino)methyl]-1,3,4-oxadiazole-2-carboxylate], 39.9 nM.
Take `Cc1cc(=O)[nH]c(NCCNC(=O)c2ccc(-c3cccc(F)c3)nc2)n1` [Example 7, 6-(3-Fluorophenyl)-N-{2-[(4-methyl-6-oxo-1,6-dihydropyrimidin-2-yl)amino]ethyl}nicotinamide]: the IC50 stood at 38.8 nM.
As for `CCOC(=O)CC(NC(=O)c1ccc(-c2cccc(OC)c2)nc1)c1ccccc1Cl` (stereo not drawn) [Example 276, Ethyl 3-(2-chlorophenyl)-3-({[6-(3-methoxyphenyl)pyridin-3-yl]carbonyl}amino) propanoate], the figure is 252 nM.
Take `O=C(NCCN1CCN(Cc2ccccc2)CC1)c1ccc(-c2cccc(F)c2)nc1` [Example 176, N-[2-(4-Benzylpiperazin-1-yl)ethyl]-6-(3-fluorophenyl)nicotinamide]: the IC50 came to 33.4 nM.
As for `COc1cccc(-c2ccc(C(=O)NCCN3CCCCC3)cn2)c1` [Example 511, 6-(3-methoxyphenyl)-N-(2-piperidin-1-ylethyl)nicotinamide], the figure is not below 1000 nM; as for `Cc1ccccc1CNC(=O)c1ccc(-c2cc(F)cc(F)c2)nc1` [Example 541, 6-(3,5-Difluorophenyl)-N-(2-methylbenzyl)nicotinamide], 16.9 nM.
As for `Cc1ccc(CN2CCC(NC(=O)c3ccc(-c4cccc(F)c4)nc3)C2=O)cc1` (stereo not drawn) [Example 193, 6-(3-Fluorophenyl)-N-[1-(4-methylbenzyl)-2-oxopyrrolidin-3-yl]nicotinamide], the figure is 2.23 nM.
As for `COC(=O)[C@H](Cc1ccc(Cl)cc1)NC(=O)c1ccc(-c2ccc(F)cc2)nc1` [Example 509, Methyl 4-chloro-N-{[6-(4-fluorophenyl)pyridin-3-yl]carbonyl}phenylalaninate], the figure is not below 1000 nM; as for `COC(=O)CC[C@@H](NC(=O)c1ccc(-c2cccc(F)c2)nc1)C(=O)OC` [Example 66, Dimethyl N-{[6-(3-fluorophenyl)pyridin-3-yl]carbonyl}-D-glutamate], 95.2 nM.
For `CCOC(=O)C(CNC(=O)c1ccc(-c2cccc(F)c2)nc1)C1CCCC1` (stereo not drawn) [Example 155, Ethyl 2-cyclopentyl-3-({[6-(3-fluorophenyl)pyridin-3-yl]carbonyl}amino)propanoate], the half-inhibitory concentration (IC50) amounted to 5.9 nM.
As for `Cc1ccc2nc(CCNC(=O)c3ccc(-c4cccc(F)c4)nc3)cn2c1` [Example 1, 6-(3-Fluorophenyl)-N-[2-(6-methylimidazo[1,2-a]pyridin-2-yl)ethyl]nicotinamide], the figure is 3.54 nM; as for `COc1cccc(-c2ccc(C(=O)NCC(C)(C)N3CCOCC3)cn2)c1` [Example 279, 6-(3-Methoxyphenyl)-N-(2-methyl-2-morpholin-4-ylpropyl)nicotinamide], 211 nM; as for `COc1cccc(-c2ccc(C(=O)NCCNc3ccccc3)cn2)c1` [Example 486, N-(2-Anilinoethyl)-6-(3-methoxyphenyl)nicotinamide], 204 nM.
As for “N-(4-Fluorophenyl)-6-(3- fluorophenyl)nicotinamide [Example 425]”, the figure is 52.6 nM; as for `Cn1ccnc1C(NC(=O)c1ccc(-c2cccc(F)c2)nc1)c1c(F)cccc1F` (stereo not drawn) [Example 25, N-[(2,6-Difluorophenyl)(1-methyl-1H-imidazol-2-yl)methyl]-6-(3-fluorophenyl)nicotinamide], 399 nM; as for `COC(=O)CNC(=O)[C@H](C)NC(=O)c1ccc(-c2ccc(F)cc2)nc1` [Example 263, Methyl N-{[6-(4-fluorophenyl)pyridin-3-yl]carbonyl}-L-alanylglycinate], 825 nM.
As for `Cc1cccc(-c2ccc(C(=O)NCc3cc(F)cc4c3OCOC4)cn2)c1` [Example 312, N-[(6-Fluoro-4H-1,3-benzodioxin-8-yl)methyl]-6-(3-methylphenyl)nicotinamide], the figure is 19.9 nM; as for `O=C(NCCC1CCC(=O)N1Cc1ccccc1)c1ccc(-c2cccc(F)c2)nc1` (stereo not drawn) [Example 58, N-[2-(1-Benzyl-5-oxopyrrolidin-2-yl)ethyl]-6-(3-fluorophenyl)nicotinamide], 9.46 nM; as for `Cc1cc(=O)[nH]c(N2CCC(CNC(=O)c3ccc(-c4cccc(F)c4)nc3)CC2)n1` [Example 109, 6-(3-Fluorophenyl)-N-{[1-(4-methyl-6-oxo-1,6-dihdyropyrimidin-2-yl)piperidin-4-yl]methyl}nicotinamide], 34.5 nM.
Regarding `O=C(NCCc1nnc(C2CC2)o1)c1ccc(-c2cccc(F)c2)nc1` [Example 207, N-[2-(5-Cyclopropyl-1,3,4-oxadiazol-2-yl)ethyl]-6-(3-fluorophenyl)nicotinamide], the IC50 was determined as 27.1 nM.
As for `COC(=O)[C@H](C)NC(=O)c1ccc(-c2cccc(OC)c2)nc1` [Example 340, Methyl N-{[6-(3-methoxyphenyl)pyridin-3-yl]carbonyl}alaninate], the figure is not below 1000 nM; as for `O=C(NCC1CCCN(c2ncc3c(n2)CCOC3)C1)c1ccc(-c2cccc(F)c2)nc1` (stereo not drawn) [Example 84, N-{[1-(7,8-Dihydro-5H-pyrano[4,3-d]pyrimidin-2-yl)piperidin-3-yl]methyl}-6-(3-fluorophenyl)nicotinamide], 13.8 nM.
For `Cc1cccc(-c2ccc(C(=O)NCCc3ccncc3)cn2)c1` [Example 240, 6-(3-Methylphenyl)-N-(2-pyridin-4-ylethyl)nicotinamide], the IC50 came to 10.7 nM.
In the case of `CCOC(=O)C1(NC(=O)c2ccc(-c3ccc(F)cc3)nc2)CCOCC1` [Example 495, Ethyl 4-({[6-(4-fluorophenyl)pyridin-3-yl]carbonyl}amino)tetrahydro-2H-pyran-4-carboxylate], the IC50 was not below 1000 nM.
As for `CCOC(=O)Cc1ccc(CNC(=O)c2ccc(-c3cccc(F)c3)nc2)cc1` [Example 205, Ethyl {4-[({[6-(3-fluorophenyl)pyridin-3-yl]carbonyl}amino)methyl]phenyl}acetate], the figure is 29.9 nM.
